Laboratory results taken from PMC6522510 (Nature Communications, 2019).
Where two headings read alike, the source gives them in different places.

Key:
[1] = system: U937; experiment: Secondary dose-response HTS, Cell Titer Glo; assay type: cell-based, human; conditions: secondary high-throughput screen, U937; for EC50: read-out: average effective concentration, U937
[2] = system: MV4-11; experiment: cells; set-up: species or system AML cell lines (8); Secondary HTS, 10-point dose-response in triplicate, Cell Titer Glo viability, four-parameter fit EC50; conditions: Homo sapiens, MV4-11, 72 h, read-out: MV4-11
[3] = system: CMS; experiment: cells; set-up: species or system AML cell lines (8); Secondary HTS, 10-point dose-response in triplicate, Cell Titer Glo viability, four-parameter fit EC50; conditions: 72 h, read-out: CMS
[4] = system: M07e; experiment: Secondary dose-response HTS, Cell Titer Glo; assay type: cell-based, human; conditions: secondary high-throughput screen; for EC50: read-out: average effective concentration, M07e
[5] = system: ML2; experiment: Secondary dose-response HTS, Cell Titer Glo; assay type: cell-based, human; conditions: secondary high-throughput screen, ML-2; for EC50: read-out: average effective concentration, ML-2
[6] = system: MOLM-13; experiment: cells; set-up: species or system AML cell lines (8); Secondary HTS, 10-point dose-response in triplicate, Cell Titer Glo viability, four-parameter fit EC50; conditions: Homo sapiens, MOLM-13, 72 h, read-out: MOLM-13
[7] = system: CHRF288-11; experiment: Secondary dose-response HTS, Cell Titer Glo; assay type: cell-based, human; conditions: secondary high-throughput screen, CHRF288-11; for EC50: Homo sapiens, HTS, read-out: average effective concentration, CHRF288-11
[8] = system: CMK; experiment: Secondary dose-response HTS, Cell Titer Glo; assay type: cell-based, human; conditions: CMK; for EC50: read-out: average effective concentration, CMK
[9] = system: MOLM-13; experiment: Secondary dose-response HTS, Cell Titer Glo; assay type: cell-based, human; conditions: secondary high-throughput screen, MOLM-13; for EC50: read-out: average effective concentration, MOLM-13
[10] = system: MV4-11; experiment: Secondary dose-response HTS, Cell Titer Glo; assay type: cell-based, human; conditions: secondary high-throughput screen, MV4-11; for EC50: read-out: average effective concentration, MV4-11
[11] = system: U937; experiment: cells; set-up: species or system AML cell lines (8); Secondary HTS, 10-point dose-response in triplicate, Cell Titer Glo viability, four-parameter fit EC50; conditions: Homo sapiens, U-937, 72 h, read-out: U937
[12] = system: CMK; experiment: cells; set-up: species or system AML cell lines (8); Secondary HTS, 10-point dose-response in triplicate, Cell Titer Glo viability, four-parameter fit EC50; conditions: Homo sapiens, CMK, 72 h, read-out: CMK
[13] = system: CMS; experiment: Secondary dose-response HTS, Cell Titer Glo; assay type: cell-based, human; conditions: secondary high-throughput screen; CMS
[14] = system: CHRF288-11; experiment: cells; set-up: species or system AML cell lines (8); Secondary HTS, 10-point dose-response in triplicate, Cell Titer Glo viability, four-parameter fit EC50; conditions: 72 h, read-out: CHRF288-11
[15] = Homo sapiens, secondary high-throughput screen
[16] = secondary high-throughput screen

Row | Structure (SMILES) | EC50 ([1]; Homo sapiens, U-937) | EC50 [3] | EC50 ([4]; Homo sapiens, M-07e, M07e) | EC50 ([5]; Homo sapiens) | EC50 [7] | EC50 ([9]; Homo sapiens) | EC50 ([10]; Homo sapiens) | average effective concentration, MV4-11 [10] | average effective concentration, CMK [8, 16] | average effective concentration, M07e ([4]; M07e) | average effective concentration, CHRF288-11 [7] | further results
1 | Cn1ncnc1[C@H]1c2n[nH]c(=O)c3cc(F)cc(c23)N[C@@H]1c1ccc(F)cc1 [BMN 673] | 3.6 µM | > 10 µM | 9.2 µM | 0.079 µM | 0.074 µM |  |  |  |  |  |  | EC50 [2]: > 10 µM; EC50 [6]: > 10 µM; EC50 [8, 15]: 0.21 µM
2 | COc1cc(Nc2c(C#N)cnc3cc(OCCCN4CCN(C)CC4)c(OC)cc23)c(Cl)cc1Cl [BOSUTINIB] | 3.8 µM | > 10 µM | 4.8 µM | 10 µM | 3.8 µM | 2.7 µM | 3.8 µM |  |  |  |  | EC50 ([8]; Homo sapiens): 1.1 µM
3 | O=C(/C=C/c1cccc(C(=O)NO)c1)NO [CBHA] |  |  |  |  |  |  |  | Inactive | Inactive |  |  | EC50 [1]: 1.3 µM; EC50 [9]: 2.4 µM; EC50 ([4]; M07e): 2.2 µM; EC50 [5]: 5.2 µM
4 | Nc1ncn([C@@H]2O[C@H](CO)[C@@H](O)[C@H]2O)c(=O)n1 [Compound 5-AZACYTIDINE] |  |  |  |  |  |  |  | Inactive |  | Inactive | Inactive | 
5 | CC(C)c1cccc(C(C)C)c1N1C(=O)c2ccc(O)cc2C1=O [Compound 5HPP-33] |  |  |  |  |  |  |  | Inactive | Inactive | Inactive | Inactive | average effective concentration, MOLM-13 [9]: Inactive
6 | O=C(/C=C/c1cccnc1)NCCCCC1CCN(C(=O)c2ccccc2)CC1 [DAPORINAD] | 0.001 µM | > 10 µM | 0.001 µM | 0.001 µM | 0.012 µM | 0.001 µM | 0.001 µM |  |  |  |  | EC50 [8, 15]: 0.001 µM
7 | COc1cccc2c1C(=O)c1c(O)c3c(c(O)c1C2=O)C[C@@](O)(C(C)=O)C[C@@H]3O[C@H]1C[C@H](N)[C@H](O)[C@H](C)O1 [DAUNORUBICIN] | 0.0043 µM |  |  | 0.001 µM | 0.001 µM | 0.043 µM | 0.023 µM |  |  |  |  | EC50 ([4]; Homo sapiens, M-07e, […]): 0.009 µM; EC50 [8, 15]: 0.035 µM
8 | CC(C)(C#N)c1ccc(N2C(=O)OCc3cnc4ccc(-c5cnc6ccccc6c5)cc4c32)cc1 [ETP-46464] |  |  |  |  |  |  |  | Inactive |  |  |  | average effective concentration, MOLM-13 [9]: Inactive; average effective concentration, M07e ([4]; […]): Inactive
9 | C=C(C)[C@@H](CC=C(C)C)C[C@@]12C[C@@H](CC=C(C)C)C(C)(C)[C@@](CC=C(C)C)(C(=O)C(C(=O)c3ccc(O)c(O)c3)=C1O)C2=O [GARCINOL] |  | > 10 µM |  | 5.4 µM | 5.8 µM | 5.1 µM |  |  |  |  |  | EC50 [2]: > 10 µM; EC50 [11]: > 10 µM; EC50 [12]: > 10 µM; EC50 ([4]; Homo sapiens, M-07e, […]): > 10 µM
10 | COC1=C2C[C@@H](C)C[C@H](OC)[C@H](O)[C@@H](C)/C=C(\C)[C@H](OC(N)=O)[C@@H](OC)/C=C\C=C(/C)C(=O)NC(=CC1=O)C2=O [GELDANOMYCIN] |  |  |  |  |  |  |  |  | Inactive | Inactive | Inactive | average effective concentration, CMS [13]: Inactive
11 | N#CN=C(NCCCCCCOc1ccc(Cl)cc1)Nc1ccncc1 [GMX-1778] | 0.005 µM | > 10 µM |  | 0.00035 µM | 0.00048 µM | 0.0036 µM | 0.0011 µM |  |  |  |  | EC50 ([4]; Homo sapiens, M-07e, […]): 0.00052 µM; EC50 [8, 15]: 0.0056 µM
12 | CCc1c2c(nc3ccc(OC(=O)N4CCC(N5CCCCC5)CC4)cc13)-c1cc3c(c(=O)n1C2)COC(=O)[C@]3(O)CC [IRINOTECAN] | 10 µM | > 10 µM | > 10 µM | 4 µM | 4.5 µM | 2.5 µM | 3.1 µM |  |  |  |  | EC50 [12]: > 10 µM
13 | CCOC(=O)C1=C(C)NC2=C(C(=O)CC(C)(C)C2)C1c1ccc(-c2ccccc2)cc1 (stereo not shown) [ITD-1] |  |  |  |  |  |  |  | Inactive | Inactive | Inactive | Inactive | average effective concentration, U937 [1]: Inactive; average effective concentration, MOLM-13 [9]: Inactive; average effective concentration, ML-2 [5]: Inactive
14 | Cc1ccc(F)c(NC(=O)Nc2ccc(-c3cccc4[nH]nc(N)c34)cc2)c1 [LINIFANIB] | 6 µM | > 10 µM | > 10 µM | > 10 µM |  | 0.007 µM | 0.003 µM |  |  |  |  | EC50 [14]: > 10 µM; EC50 ([8]; Homo sapiens): 5.8 µM
15 | Cn1cc(C(=O)Cc2ccccc2)cc1/C=C/C(=O)NO [MC 1293] |  |  |  |  |  |  |  | Inactive |  |  | Inactive | average effective concentration, U937 [1]: Inactive; EC50 ([4]; M07e): 0.45 µM; EC50 [8, 16]: 8.7 µM
16 | COc1c(C)c2c(c(O)c1C/C=C(\C)CCC(=O)OCCN1CCOCC1)C(=O)OC2 [MYCOPHENOLATE MOFETIL] | 3 µM | > 10 µM | > 10 µM | 1.3 µM | 2.9 µM | 1.5 µM | 1.9 µM |  |  |  |  | EC50 ([8]; Homo sapiens): 7.5 µM
17 | COc1ccc(Cn2ccc3ccc(C(=O)NO)cc32)cc1 [PCI 34051] |  |  |  |  |  |  |  | Inactive | Inactive |  | Inactive | average effective concentration, U937 [1]: Inactive; average effective concentration, MOLM-13 [9]: Inactive; average effective concentration, M07e ([4]; […]): Inactive; average effective concentration, ML-2 [5]: Inactive
18 | Oc1cccc(-c2nc(N3CCOCC3)c3oc4ncccc4c3n2)c1 [PIK 103] |  |  |  |  |  |  |  |  |  | Inactive | Inactive | average effective concentration, ML-2 [5]: Inactive; average effective concentration, CMS [13]: Inactive
19 | O=C(CCCCCCC(=O)Nc1cccnc1)NO [PYROXAMIDE] | 5.8 µM | > 10 µM | 8.2 µM | > 10 µM |  | 6 µM | 1.6 µM |  |  |  |  | EC50 [14]: > 10 µM; EC50 [12]: > 10 µM
20 | CC(=O)Nc1ccc(NC(=S)NC(=O)c2ccc(C(C)(C)C)cc2)cc1 [TENOVIN-1] |  |  |  |  |  |  |  | Inactive | Inactive | Inactive | Inactive | average effective concentration, MOLM-13 [9]: Inactive; average effective concentration, ML-2 [5]: Inactive
21 | O=c1[nH]c2sccc2c2ccccc12 [TIQ-A] |  |  |  |  |  |  |  |  | Inactive |  | Inactive | average effective concentration, U937 [1]: Inactive; EC50 [9]: 4.2 µM; EC50 ([4]; M07e): 7 µM; average effective concentration, ML-2 [5]: Inactive; EC50 [10]: 3.5 µM
22 | O=C(CCCCCCC(=O)Nc1ccc([C@H]2O[C@@H](CSc3nc(-c4ccccc4)c(-c4ccccc4)o3)C[C@@H](c3ccc(CO)cc3)O2)cc1)NO [TUBACIN] |  | > 10 µM |  | > 10 µM | > 10 µM | > 10 µM |  |  |  |  |  | EC50 [2]: > 10 µM; EC50 [11]: > 10 µM; EC50 [12]: > 10 µM; EC50 ([4]; Homo sapiens, M-07e, […]): 2.5 µM
23 | N#Cc1ccc(COC[C@H]2O[C@@H](n3c(NCc4ccc(Cl)c(Cl)c4)nc4c(N)ncnc43)[C@H](O)[C@@H]2O)cc1 [VER-155008] |  |  |  |  |  |  |  | Inactive | Inactive | Inactive | Inactive | average effective concentration, U937 [1]: Inactive; average effective concentration, MOLM-13 [9]: Inactive; average effective concentration, ML-2 [5]: Inactive
